# US20210024545A1, “SUBSTITUTED DIAZAHETERO-BICYCLIC COMPOUNDS AND THEIR USE” (Bayer Aktiengesellschaft, priority 2016, published 2021)
# What was measured:
# [1] = target: human TASK-1 (Homo sapiens, UniProt O14649); assay: Inhibition of recombinant TASK-1 in stably transfected CHO cells, KCl-induced depolarization, voltage-sensitive dye (B-2); assay type: cell-based; set-up: expressed in transfected cells; host or cells: stably transfected CHO cells; conditions: depolarization induced by 40 mM potassium chloride, some mean values from multiple determinations
# Sequence of human TASK-1 (O14649 whole entry): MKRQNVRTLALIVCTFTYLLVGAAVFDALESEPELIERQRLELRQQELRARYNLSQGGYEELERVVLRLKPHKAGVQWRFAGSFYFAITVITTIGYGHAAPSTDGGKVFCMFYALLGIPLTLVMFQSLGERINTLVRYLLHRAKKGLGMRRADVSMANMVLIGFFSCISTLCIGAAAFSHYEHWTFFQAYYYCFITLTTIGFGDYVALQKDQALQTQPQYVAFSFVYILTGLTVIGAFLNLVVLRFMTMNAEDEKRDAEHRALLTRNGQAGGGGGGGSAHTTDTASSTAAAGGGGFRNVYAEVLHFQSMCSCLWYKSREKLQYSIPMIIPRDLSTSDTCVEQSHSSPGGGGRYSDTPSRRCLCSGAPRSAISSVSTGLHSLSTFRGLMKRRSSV
# Procedure: (§1) B-2. Inhibition of Recombinant TASK-1 and TASK-3 In Vitro
# (§2) The investigations on the inhibition of the recombinant TASK-1 and TASK-3 channels were conducted using stably transfected CHO cells. The compounds of the invention were tested here with administration of 40 mM of potassium chloride in the presence of a voltage-sensitive dye using the method described in detail in the following references [Whiteaker et al., Validation of FLIPR membrane potential dye for high-throughput screening of potassium channel modulators, J. Biomol. Screen. 6 (5), 305-312 (2001); Molecular Devices FLIPR Application Note: Measuring membrane potential using the FLIPR® membrane potential assay kit on Fluorometric Imaging Plate Reader (FLIPR®) systems, http://www.moleculardevices.com/reagents-supplies/assay-kits/ion-channels/flipr-membrane-potential-assay-kits]. The activity of the test substances was determined as their ability to inhibit a depolarization induced in the recombinant cells by 40 mM potassium chloride. The concentration which can block half of this depolarization is referred to as IC50).
# (§3) Table 2 below lists the IC50 values from this assay determined for individual working examples of the invention (some as mean values from multiple independent individual determinations): […]
# [2] = target: human TASK-3 (Homo sapiens, UniProt Q9NPC2); assay: Inhibition of recombinant TASK-3 in stably transfected CHO cells, KCl-induced depolarization, voltage-sensitive dye (B-2); assay type: cell-based; set-up: expressed in transfected cells; host or cells: stably transfected CHO cells; conditions: depolarization induced by 40 mM potassium chloride, some mean values from multiple determinations
# Sequence of human TASK-3 (Q9NPC2 whole entry): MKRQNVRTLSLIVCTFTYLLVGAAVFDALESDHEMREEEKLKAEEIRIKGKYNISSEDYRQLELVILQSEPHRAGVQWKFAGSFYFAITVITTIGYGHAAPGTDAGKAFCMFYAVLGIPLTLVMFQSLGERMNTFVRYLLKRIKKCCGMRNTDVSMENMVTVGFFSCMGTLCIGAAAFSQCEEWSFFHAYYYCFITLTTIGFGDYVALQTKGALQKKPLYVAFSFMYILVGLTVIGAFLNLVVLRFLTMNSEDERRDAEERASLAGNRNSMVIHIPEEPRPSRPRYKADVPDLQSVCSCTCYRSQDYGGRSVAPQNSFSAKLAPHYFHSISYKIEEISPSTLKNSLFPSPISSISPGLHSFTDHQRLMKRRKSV
# Procedure: as §1, §2, §3
Structure (SMILES),IC50 [1] [nM],IC50 [2] [nM]
"CC(C)NC(=O)N1C2CCC1CN(Cc1c(-c3ccc(Cl)cc3)nc3ccccn13)C2 [Example 154, 3-{[2-(4-Chlorophenyl)imidazo[1,2-a]pyridin-3-yl]methyl}-N-isopropyl-3,8-diazabicyclo[3.2.1]octane-8-carboxamide]",130,29
"COc1ccc(F)c(C(=O)N2CC3CCC2CN3Cc2c(-c3ccc(Cl)cn3)nc3ccccn23)n1 (single isomer, unassigned) [Example 66]",1100,110
O=C(c1ccccc1F)N1C2CCC1CN(Cc1c(-c3ccc(Cl)cn3)nc3ccccn13)C2 [Example 111],110,25
"CCN(C(=O)N1C2CCC1CN(Cc1c(-c3ccc(Cl)cc3)nc3ccccn13)C2)C1CCCCC1 [Example 175, 3-{[2-(4-Chlorophenyl)imidazo[1,2-a]pyridin-3-yl]methyl}-N-cyclohexyl-N-ethyl-3,8-diazabicyclo[3.2.1]octane-8-carboxamide]",43,200
"Cc1ccccc1C(=O)N1CC2CCC1CN2Cc1c(-c2ccc(Cl)cc2)nc2ccccn12 (single isomer, unassigned) [Example 46]",73,5
"CC(C)(C)OC(=O)N1CC2CCC1CN2Cc1c(-c2ccc(Cl)cc2)nc2ccccn12 (single isomer, unassigned) [Example 15, tert-Butyl 5-{[2-(4-chlorophenyl)imidazo[1,2-a]pyridin-3-yl]methyl}-2,5-diazabicyclo[2.2.2]octane-2-carboxylate]",397,82
Cc1ccc(F)cc1C(=O)N1C2CCC1CN(Cc1c(-c3ccc(Cl)cc3)nc3ccccn13)C2 [Example 107],1000,33
O=C(c1ccccc1F)N1CC2CCC1CN2Cc1c(-c2ccc(Cl)cn2)nc2ccccn12 (stereo not shown) [Example 64],280,17
"O=C(NC1CC1)N1C2CCC1CN(Cc1c(-c3ccc(Cl)cc3)nc3ccccn13)C2 [Example 170, 3-{[2-(4-Chlorophenyl)imidazo[1,2-a]pyridin-3-yl]methyl}-N-cyclopropyl-3,8-diazabicyclo[3.2.1]octane-8-carboxamide]",1200,64
"Cc1ccc(NC(=O)N2C3CCC2CN(Cc2c(-c4ccc(Cl)cc4)nc4ccccn24)C3)c(C)c1 [Example 167, 3-{[2-(4-Chlorophenyl)imidazo[1,2-a]pyridin-3-yl]methyl}-N-(2,4-dimethylphenyl)-3,8-diazabicyclo[3.2.1]octane-8-carboxamide]",3000,350
"COc1ccc(Cl)c(C(=O)N2C3COCC2CN(Cc2c(-c4ccc(Cl)cc4)nc4ccccn24)C3)n1 [Example 32, (3-Chloro-6-methoxypyridin-2-yl)(7-{[2-(4-chlorophenyl)imidazo[1,2-a]pyridin-3-yl]methyl}-3-oxa-7,9-diazabicyclo[3.3.1]non-9-yl)methanone]",270,9.6
"CCOc1cccc(C(=O)N2CC3CCC2CN3Cc2c(-c3ccc(Cl)cc3)nc3ccccn23)c1 (single isomer, unassigned) [Example 54]",470,76
"O=C(c1nccs1)N1C2CCC1CN(Cc1c(-c3ccc(Cl)cc3)nc3ccccn13)C2 [Example 147, (3-{[2-(4-Chlorophenyl)imidazo[1,2-a]pyridin-3-yl]methyl}-3,8-diazabicyclo[3.2.1]oct-8-yl)(1,3-thiazol-2-yl)methanone]",12,15
"COc1ccc(Cl)c(C(=O)N2CC3CCC2CN3Cc2c(-c3ccc(Br)cc3)nc3ccccn23)n1 (racemic) [Example 199, (5-{[2-(4-Bromophenyl)imidazo[1,2-a]pyridin-3-yl]methyl}-2,5-diazabicyclo[2.2.2]oct-2-yl)(3-chlor-6-methoxypyridin-2-yl)methanone(racemate)]",33,1.8
"COc1ccc(Cl)c(C(=O)N2CC3CCC2CN3Cc2c(-c3ccc(Cl)cn3)nc3ccccn23)n1 (single isomer, unassigned; enantiomer 1) [Example 25, (3-Chloro-6-methoxypyridin-2-yl)(5-{[2-(5-chloropyridin-2-yl)imidaz[1,2-a]pyridin-3-yl]methyl}-2,5-diazabicyclo[2.2.2]oct-2-yl)methanone (enantiomer 1)]",120,5.6
O=C(C1CCCC1)N1C2CC1CN(Cc1c(-c3ccc(Cl)cc3)nc3ccccn13)C2 [Example 116],535,340
"O=C(N1CCSCC1)N1C2CCC1CN(Cc1c(-c3ccc(Cl)cc3)nc3ccccn13)C2 [Example 183, (3-{[2-(4-Chlorophenyl)imidazo[1,2-a]pyridin-3-yl]methyl}-3,8-diazabicyclo[3.2.1]oct-8-yl)(thiomorpholin-4-yl)methanone]",450,26
"O=C(c1cc(F)ccc1Cl)N1CC2CCC1CN2Cc1c(-c2ccc(Cl)cc2)nc2ccccn12 (single isomer, unassigned) [Example 41]",76,3.9

Structure (SMILES),IC50 [1] [nM],IC50 [2] [nM]
O=C(c1cccc(Cl)c1)N1C2COCC1CN(Cc1c(-c3ccc(Cl)cc3)nc3ccccn13)C2 [Example 79],1000,190
COc1ccccc1C(=O)N1C2CCC1CN(Cc1c(-c3ccc(Cl)cc3)nc3ccccn13)C2 [Example 109],693,92
"O=C(OC1CCCCC1)N1C2CCC1CN(Cc1c(-c3ccc(Cl)cc3)nc3ccccn13)C2 [Example 187, Cyclohexyl 3-{[2-(4-chlorophenyl)imidazo[1,2-a]pyridin-3-yl]methyl}-3,8-diazabicyclo[3.2.1]octane-8-carboxylate]",3800,200
"COc1cccc(C(=O)N2CC3CCC2CN3Cc2c(-c3ccc(Br)cc3)nc3ccccn23)n1 (racemic) [Example 151, (5-{[2-(4-Bromophenyl)imidazo[1,2-a]pyridin-3-yl]methyl}-2,5-diazabicyclo[2.2.2]oct-2-yl)(6-methoxypyridin-2-yl)methanone]",72,1.8
"COc1ccc(Cl)c(C(=O)N2C3CCC2CN(Cc2c(-c4ccc(Br)cc4)nc4ccccn24)C3)n1 [Example 139, (3-{[2-(4-Bromophenyl)imidazo[1,2-a]pyridin-3-yl]methyl}-3,8-diazabicyclo[3.2.1]oct-8-yl)(3-chloro-6-methoxypyridin-2-yl)methanone]",290,18
"O=C(Nc1ccccc1Cl)N1C2CCC1CN(Cc1c(-c3ccc(Cl)cc3)nc3ccccn13)C2 [Example 171, N-(2-Chlorophenyl)-3-{[2-(4-chlorophenyl)imidazo[1,2-a]pyridin-3-yl]methyl}-3,8-diazabicyclo[3.2.1]octane-8-carboxamide]",1800,26
"O=C(N1CCCCC1)N1C2CCC1CN(Cc1c(-c3ccc(Cl)cc3)nc3ccccn13)C2 [Example 179, (3-{[2-(4-Chlorophenyl)imidazo[1,2-a]pyridin-3-yl]methyl}-3,8-diazabicyclo[3.2.1]oct-8-yl)(piperidin-1-yl)methanone]",270,2.9
"CCCOC(=O)N1C2COCC1CN(Cc1c(-c3ccc(Cl)cc3)nc3ccccn13)C2 [Example 197, Propyl 7-{[2-(4-chlorophenyl)imidazo[1,2-a]pyridin-3-yl]methyl}-3-oxa-7,9-diazabicyclo[3.3.1]nonane-9-carboxylate]",150,13
"CC(C)N(C(=O)N1C2CCC1CN(Cc1c(-c3ccc(Cl)cc3)nc3ccccn13)C2)c1ccc(Cl)cc1 [Example 182, N-(4-Chlorophenyl)-3-{[2-(4-chlorophenyl)imidazo[1,2-a]pyridin-3-yl]methyl}-N-isopropyl-3,8-diazabicyclo[3.2.1]octane-8-carboxamide]",6100,1000
CC(C)c1ccc(-c2nc3ccccn3c2CN2CC3CCC(C2)N3C(=O)OC(C)(C)C)cc1 [Example 12],3000,8300
"COc1ccc(Cl)c(C(=O)N2CC3CCC2CN3Cc2c(-c3ccc(Cl)cn3)nc3ccccn23)n1 (single isomer, unassigned) [Example 67]",990,220
Cc1ccccc1C(=O)N1CC2CCC(C1)N2Cc1c(-c2ccc(Cl)cc2)nc2ccccn12 [Example 90],958,79
O=C(C1CCCCC1)N1CC2CCC(C1)N2Cc1c(-c2ccc(Cl)cc2)nc2ccccn12 [Example 93],2300,510
"O=C(C1CCCCC1)N1CC2CCC1CN2Cc1c(-c2ccc(Cl)cc2)nc2ccccn12 (single isomer, unassigned) [Example 42]",880,17
COc1cccc(C(=O)N2C3CCC2CN(Cc2c(-c4ccc(Br)cc4)nc4ccccn24)C3)c1 [Example 99],470,16
O=C(C1CCCC1)N1C2COCC1CN(Cc1c(-c3ccc(Cl)cc3)nc3ccccn13)C2 [Example 71],130,24
O=C(c1ccccc1F)N1CC2CCC(C1)N2Cc1c(-c2ccc(Br)cc2)nc2ccccn12 [Example 82],230,420
